Patent US20100016421A1, “METHODS FOR DETERMINING SENSITIVITY TO AMINOFLAVONES” (priority 2008, published 2010)
Read-outs that look alike come from different tables or passages of the source.

Experiments:
MCF-7 = assay: MTT assay, MCF-7 breast cancer cell line; assay type: cell-based, human; settings: for IC50: Homo sapiens, MCF7
Description: (§1) The breast cancer cell lines shown in Table 2 were screened to determine the localization of the aryl hydrocarbon receptor (AhR) in accordance with the techniques discussed above. MTT assays were conducted to measure cell death on various breast cancer cell lines.
(§2) The inhibitory concentration 50% were determined by MTT assay and following the NCI DTP in vitro testing procedures (http://dtp.nci.nih.gov/branches/btb/ivclsp.html). Three independent MTT in vitro tumor cell growth inhibition experiments were conducted and a mean IC50 value generated as shown in Table 4.

MCF-7 HER2-18 = assay: MTT assay, MCF-7 HER2-18 cell line; assay type: cell-based, human; settings: for IC50: Homo sapiens
Description: as §1, §2

MCF-7 TAM1 = assay: MTT assay, MCF-7 TAM1 cell line; assay type: cell-based, human; settings: for IC50: Homo sapiens, MCF7:TAM1
Description: as §1, §2

T47D = assay: MTT assay, T47D breast cancer cell line; assay type: cell-based, human; settings: for IC50: Homo sapiens
Description: as §1, §2

MDA-MB-231 = assay: MTT assay, MDA-MB-231 breast cancer cell line; assay type: cell-based, human; settings: for IC50: Homo sapiens
Description: as §1, §2

MCF10A = assay: MTT assay, MCF10A normal breast cell line; assay type: cell-based, human; settings: for IC50: Homo sapiens, MCF-10A
Description: as §1, §2

HCC1937 = assay: MTT assay, HCC1937 breast cancer cell line; assay type: cell-based; settings: Homo sapiens
From the text: (§3) AhR localization correlates with cytotoxic activity of AFP464, as discussed above. […] The growth curves for all three cell lines resulting from 5 day continuous exposure of the cells to AFP464 in 96-well plates and the detection of cell growth by conversion of methyltetrazolium into formazan by viable cells (MTT assay) are shown. All cell lines in FIG. 3 have defects in the BRCA tumor suppressor genes responsible for very aggressive forms of hereditary breast and ovarian cancer. MX-1 have BRCA1 deletions and BRCA2 mutations, HCC1937 are BRCA1 mutant and completely defective, IGROV1 are defective for BRCA2 (±).
as §2

Hs578t = assay: MTT assay, Hs578t breast cancer cell line; assay type: cell-based, human
Description: as §2

BT 20 = assay: MTT assay, BT 20 breast cancer cell line; assay type: cell-based; settings: Homo sapiens; BT 20, mean of three independent MTT experiments; read-out: AF IC50
Description: as §2

MDA-MB-468 = assay: MTT assay, MDA-MB-468 breast cancer cell line; assay type: cell-based; settings: Homo sapiens; MDA-MB-468, mean of three independent MTT experiments; read-out: AF IC50
Description: as §2

SKBR3 = assay: MTT assay, SKBR3 breast cancer cell line; assay type: cell-based; settings: Homo sapiens, SK-BR-3; SKBR3, mean of three independent MTT experiments; read-out: AF IC50
Description: as §2

[1] = tested on: ER-negative, or “triple-negative,” or basal B breast cancer cell lines; assay: Sensitivity to aminoflavone after HDAC inhibitor pre-treatment; assay type: cell-based; settings: Homo sapiens
[2] = tested on: SKBR3, T47D, MCF-7, MCF-7 Tam1, and MCF-7 Her2-18 cell lines; assay: MTT assay, luminal type cell lines (summary); assay type: cell-based; settings: Homo sapiens; range over luminal type cell lines; read-out: AF IC50 concentrations
Description: as §2
(§4) The SKBR3, T47D, MCF-7, MCF-7 Tam1, and MCF-7 Her2-18 cell lines are all of a luminal type gene cluster. […] Based on previous NCI cell line screen results discussed above, ER-negative tumors were thought to be resistant to aminoflavone. […] Thus, the gene profile relating to ER status alone may not predict the sensitivity of the tumor to treatment with AF. AFP464 is not only effective in ER-positive breast cancer cells, which are always of luminal type histologies, but are also effective in the basal A subtype of ER-negative breast cancers.

[3] = tested on: HCC1937, BT 20, MDA-MB-468, and SKBR3 ER-negative tumor cells; assay: MTT assay, sensitive ER-negative cell lines (summary); assay type: cell-based; settings: Homo sapiens; range over sensitive ER-negative cell lines; read-out: AF IC50 concentrations
Description: as §2, §4

OVCAR-8 = assay: Cytotoxicity, OVCAR-8 ovarian cancer cell line; assay type: cell-based; settings: Homo sapiens
From the text: (§5) Similarly, the ovarian cancer cell lines shown in Table 3 were screened to determine the localization of the Aryl hydrocarbon receptor (AhR). As shown below, and further illustrated in FIGS. 2 and 3, all cell lines where the AhR is localized predominantly in the cytoplasm (e.g. OVCAR-3 and IGROV-1) were more sensitive to treatment with AFP464 than tumor cells where the AhR is localized predominantly in the nucleus (e.g., OVCAR-8).

ADDP = assay: Cytotoxicity, ADDP ovarian cancer cell line; assay type: cell-based; settings: Homo sapiens
From the text: as §5

AG6000 = assay: Cytotoxicity, AG6000 ovarian cancer cell line; assay type: cell-based; settings: Homo sapiens
From the text: as §5

A2780 = assay: Cytotoxicity, A2780 ovarian cancer cell line; assay type: cell-based; settings: Homo sapiens
From the text: as §5

OVCAR-3 = assay: Cytotoxicity, OVCAR-3 ovarian cancer cell line; assay type: cell-based; settings: Homo sapiens
From the text: as §5

IGROV-1 = assay: Cytotoxicity (MTT), IGROV-1 ovarian cancer cell line; assay type: cell-based; settings: Homo sapiens
From the text: as §5, §3

MX-1 = assay: MTT assay, MX-1 triple negative breast cancer cell line; assay type: cell-based; settings: Homo sapiens, MX1, 120 h, MX-1, 5 day continuous exposure
From the text: as §3

γ-H2AX foci in MCF-7 = assay: Immunofluorescence of phosphorylated γ-H2AX, MCF-7; assay type: cell-based, human
From the text: (§6) The phosphorylated γ-H2AX is an indicator of a DNA-damage response in cells.

[4] = tested on: γ-H2AX foci in MCF-7 HER2-18; assay: Immunofluorescence of phosphorylated γ-H2AX, MCF-7 HER2-18; assay type: cell-based, human
From the text: as §6

[5] = tested on: γ-H2AX foci in MCF-7 TAM1; assay: Immunofluorescence of phosphorylated γ-H2AX, MCF-7 TAM1; assay type: cell-based, human
From the text: as §6

γ-H2AX foci in T47D = assay: Immunofluorescence of phosphorylated γ-H2AX, T47D; assay type: cell-based, human
From the text: as §6

[6] = tested on: γ-H2AX foci in MDA-MB-231; assay: Immunofluorescence of phosphorylated γ-H2AX, MDA-MB-231; assay type: cell-based, human
From the text: as §6

γ-H2AX foci in MCF10a = assay: Immunofluorescence of phosphorylated γ-H2AX, MCF10a; assay type: cell-based, human
From the text: as §6

Maximum tolerated dose = settings: mouse, in vivo, iv; intravenously
Description: Next, the treatment and data evaluation will be discussed. […] The maximum tolerated dose (MTD) for AFP464 was determined prior to initiation of the experiment as 75 mg/kg/d intravenously. […]. […] AFP464 was given on days 1, 3, 5, 15, 17, and 19.

ER-positive cell lines = settings: NCI 60 screen, read-out: sensitivity (order of magnitude); cited from earlier work
CYP1A1 = assay: Real time PCR of CYP1A1 expression, MDA-MB-231
CYP1B1 = assay: Real time PCR of CYP1B1 expression, MDA-MB-231
[7] = tested on: human tumor xenograft MDA-MB-231; assay: MDA-MB-231 subcutaneous xenograft in nude mice
ERα in MDA-MB-231 = assay: Western blot of ERα induction, MDA-MB-231; assay type: cell-based, human; settings: MDA-MB-231, 60 hours at […] and 13.5 μM
Description: Lane 1 of each of FIGS. 4A and 4B is a control in which the respective cells were treated with DMSO.

[8] = in mice; cited from earlier work
[9] = mean of three independent MTT experiments, read-out: AF IC50
[10] = MDA-MB-231, SAHA for 48 hours followed by AFP464 for 6 hours
[11] = MDA-MB-231, SAHA for 48 hours followed by AFP464 for 24 hours

SMILES: Cc1c(F)c(N)c2c(=O)cc(-c3ccc(N)c(F)c3)oc2c1F [AF, aminoflavone]
- IC50 (MCF-7; MCF-7, mean of three independent MTT experiments, read-out: AF IC50): 16 nM
- IC50 (MCF-7 HER2-18; MCF-7 Her2-18, mean of three independent MTT experiments, read-out: AF IC50): 20 nM
- IC50 (MCF-7 TAM1; MCF-7 Tam1, mean of three independent MTT experiments, read-out: AF IC50): 25 nM
- IC50 (T47D; [9]): 14 nM
- IC50 (MDA-MB-231; MDA-MB-231, mean of three independent MTT experiments, read-out: AF IC50): 25000 nM
- IC50 (MCF10A; [9]): 3000 nM
- IC50 (HCC1937; HCC1937, mean of three independent MTT experiments, read-out: AF IC50): 10 nM
- IC50 (Hs578t; Homo sapiens, Hs-578T, Hs578t, mean of three independent MTT experiments, read-out: AF IC50): 20000 nM
- IC50 (BT 20): 20 nM
- IC50 (MDA-MB-468): 12 nM
- IC50 (SKBR3): 16 nM
- IC50 [1]: ~1000 nM
- IC50 [2]: 16 to 20 nM
- IC50 [3]: 10 to 20 nM

SMILES: Cc1c(F)c(N)c2c(=O)cc(-c3ccc(NC(=O)[C@@H](N)CCCCN)c(F)c3)oc2c1F [AFP464]
- IC50 (MCF-7; MCF-7, MTT, read-out: IC50): 16 nM
- IC100 (MCF-7; MCF-7, MTT): 300 nM
- IC50 (MCF-7 HER2-18; MCF-7 HER2-18, MTT, read-out: IC50): 20 nM
- IC100 (MCF-7 HER2-18; MCF-7 HER2-18, MTT): 375 nM
- IC50 (MCF-7 TAM1; MCF-7 TAM1, MTT, read-out: IC50): 25 nM
- IC100 (MCF-7 TAM1; MCF-7 TAM1, MTT): 200 nM
- IC50 (T47D; MTT, read-out: IC50): 14 nM
- IC100 (T47D; MTT): 20 nM
- IC50 (MDA-MB-231; MDA-MB-231, MTT, read-out: IC50): 25000 nM
- IC100 (MDA-MB-231; MDA-MB-231, MTT): >100 µM
- IC50 (MCF10A; MTT, read-out: IC50): 3000 nM
- IC100 (MCF10A; MTT): 9 µM
- IC50 (OVCAR-8): 13000 nM
- IC50 (ADDP): 2500 nM
- IC50 (AG6000): > 10000 nM
- IC50 (A2780): 5000 nM
- IC50 (OVCAR-3): 252 nM
- IC50 (IGROV-1; IGROV-1): 420 nM
- IC50 (IGROV-1; IGROV-1, 120 h, IGROV1, 5 day continuous exposure, MTT): 10 to 200 nM
- IC50 (MX-1): 30000 nM
- IC50 (HCC1937; 120 h, HCC1937, 5 day continuous exposure, MTT, read-out: IC50): 10 to 200 nM
- γ-H2AX Foci (γ-H2AX foci in MCF-7): yes
- γ-H2AX Foci [4]: yes
- γ-H2AX Foci [5]: yes
- γ-H2AX Foci (γ-H2AX foci in T47D): yes
- γ-H2AX Foci [6]: no
- γ-H2AX Foci (γ-H2AX foci in MCF10a): no
- MTD (Maximum tolerated dose): 75 mg/kg/day
- IC50 (ER-positive cell lines): ~10 nM
- expression of RNA for CYP1A1 (CYP1A1; [10]): increased expression
- expression of RNA for CYP1A1 (CYP1A1; [11]): little expression
- expression of RNA for CYP1B1 (CYP1B1; [10]): increased expression
- expression of RNA for CYP1B1 (CYP1B1; [11]): little expression
- % Growth Inhibition [d29] ([7]; AFP464 35 mg/kg i.v. Day 1, 3, 5, 15, 17, 19): 23%
- Opt. Test/Control % [d] ([7]; AFP464 35 mg/kg i.v. Day 1, 3, 5, 15, 17, 19, optimum d26): 77 [d26] %
- % Growth Inhibition [d29] ([7]; AFP464 70 mg/kg i.v. Day 1, 3, 5, 15): 15%
- Opt. Test/Control % [d] ([7]; AFP464 70 mg/kg i.v. Day 1, 3, 5, 15, optimum d28): 85 [d28] %

SMILES: O=C(CCCCCCC(=O)Nc1ccccc1)NO [SAHA, suberoylanilide hydroxamic acid, reference compound]
- IC100 (MDA-MB-231; SAHA in MDA-MB-231): 13.5 µM
- IC100 (Hs578t; SAHA in Hs578T): 100 µM
- ERα induction (ERα in MDA-MB-231): increases
- MTD [8]: 175 mg/kg/day
- Opt. Test/Control % [d] ([7]; Vorinostat 50 mg/kg p.o. Day −3 to −1, 12-14, optimum d26): 71 [d26] %
